Reference: ChEMBL document CHEMBL1134141, “Diaminopurine-acridine heterodimers for specific recognition of abasic site containing DNA. Influence on the biological activity of the position of the linker on the purine ring” (Bioorg Med Chem Lett, 2001)

How the values were obtained:
[1] = tested on: A549; test: Cytotoxicity of compound in synergy in BCNU (10 uM) against A549 cell line; format: functional, Homo sapiens
[2] = tested on: L1210; test: The compound was evaluated for cytotoxicity against L1210 cell line; format: functional, cell-based; settings: Mus musculus
[3] = tested on: A549; test: The compound was evaluated for cytotoxicity against A549 cell line; format: functional, cell-based; settings: Homo sapiens
[4] = tested on: A549; test: Cytotoxicity of compound in synergy in 94% BCNU (10 uM) against A549 cell line; format: functional, Homo sapiens

Row | Structure (SMILES) | Synergy [1] [%] | IC50 [2] [µM] | IC50 [3] [µM] | Synergy [4] [%]
1 | COc1ccc2nc3cc(Cl)ccc3c(NCCCC/N=C(\N)NCCCn3cnc4c(N)nc(N)nc43)c2c1 | 16 | 60 | 6.5 | –
2 | COc1ccc2nc3cc(Cl)ccc3c(NCCCN(CCCN(CCn3cnc4c(N)ncnc43)C(=N)N)C(=N)N)c2c1 | – | 33 | 10 | 94
3 | COc1ccc2nc3cc(Cl)ccc3c(NCCCC/N=C(\N)NCCCNc3[nH]c(N)nc4ncnc3-4)c2c1 | – | > 100 | 5 | –
4 | COc1ccc2nc3cc(Cl)ccc3c(NCCCC/N=C(\N)NCCCNc3nc(N)c4[nH]cnc4n3)c2c1 | – | 36 | 5 | –
